#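 96-well plates; 48 h exposure; 5 concentrations. Endpoints by linear interpolation between flanking doses. Not reached: highest tested concentration assigned. TGI denotes the concentration required for complete inhibition of growth.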
# Legend:
# Test in all cases: growth of human tumour cells (NCI), 48 h
# MDA-MB-231 breast = test system: MDA-MB-231 breast
# K-562 leukemia = test system: K-562 leukemia
# OVCAR-4 ovarian = test system: OVCAR-4 ovarian
# DU-145 prostate = test system: DU-145 prostate
# SF-539 CNS = test system: SF-539 CNS
# M14 melanoma = test system: M14 melanoma
# RXF 393 renal = test system: RXF 393 renal
# T-47D breast = test system: T-47D breast
# CCRF-CEM leukemia = test system: CCRF-CEM leukemia
# HCC-2998 colon = test system: HCC-2998 colon
# 786-0 renal = test system: 786-0 renal
# SK-OV-3 ovarian = test system: SK-OV-3 ovarian
# SF-268 CNS = test system: SF-268 CNS
# SNB-19 CNS = test system: SNB-19 CNS
# SW-620 colon = test system: SW-620 colon
# OVCAR-3 ovarian = test system: OVCAR-3 ovarian
# MOLT-4 leukemia = test system: MOLT-4 leukemia
# HS 578T breast = test system: HS 578T breast
# HOP-92 NSCLC = test system: HOP-92 NSCLC
# SNB-75 CNS = test system: SNB-75 CNS
# U251 CNS = test system: U251 CNS
# SF-295 CNS = test system: SF-295 CNS
# CAKI-1 renal = test system: CAKI-1 renal
# A549 NSCLC = test system: A549 NSCLC
# BT-549 breast = test system: BT-549 breast
# OVCAR-5 ovarian = test system: OVCAR-5 ovarian
# KM12 colon = test system: KM12 colon
# SK-MEL-5 melanoma = test system: SK-MEL-5 melanoma
# MDA-N = test system: MDA-N
# A498 renal = test system: A498 renal
# NCI-H23 lung = test system: NCI-H23 lung
# MDA-MB-435 = test system: MDA-MB-435
# TK-10 renal = test system: TK-10 renal
# UACC-257 melanoma = test system: UACC-257 melanoma
# ACHN renal = test system: ACHN renal
# HCT-116 colon = test system: HCT-116 colon
# SN12C renal = test system: SN12C renal
# LOX IMVI melanoma = test system: LOX IMVI melanoma
# NCI-H460 lung = test system: NCI-H460 lung
# UACC-62 melanoma = test system: UACC-62 melanoma
# MCF7 breast = test system: MCF7 breast
# SR leukemia = test system: SR leukemia
# UO-31 renal = test system: UO-31 renal
# IGROV1 ovarian = test system: IGROV1 ovarian
# HL-60(TB) leukemia = test system: HL-60(TB) leukemia
# SK-MEL-28 melanoma = test system: SK-MEL-28 melanoma
# COLO 205 colon = test system: COLO 205 colon
# RPMI-8226 leukemia = test system: RPMI-8226 leukemia
# PC-3 prostate = test system: PC-3 prostate
# HOP-62 NSCLC = test system: HOP-62 NSCLC
# HT29 colon = test system: HT29 colon
# MALME-3M melanoma = test system: MALME-3M melanoma
# NCI/ADR-RES ovarian = test system: NCI/ADR-RES ovarian
# OVCAR-8 ovarian = test system: OVCAR-8 ovarian
# HCT-15 colon = test system: HCT-15 colon
# NCI-H226 lung = test system: NCI-H226 lung
# EKVX NSCLC = test system: EKVX NSCLC
# SK-MEL-2 melanoma = test system: SK-MEL-2 melanoma
# NCI-H522 lung = test system: NCI-H522 lung
smiles,measurement,setting,value
COc1c(Cl)nc2ccccc2c1N=[N+]=[N-],TGI,MDA-MB-231 breast,> 100 µM
same,TGI,K-562 leukemia,> 100 µM
same,TGI,OVCAR-4 ovarian,> 100 µM
same,TGI,DU-145 prostate,> 100 µM
same,TGI,SF-539 CNS,> 100 µM
same,TGI,M14 melanoma,> 100 µM
same,TGI,RXF 393 renal,> 100 µM
same,TGI,T-47D breast,> 100 µM
same,TGI,CCRF-CEM leukemia,> 100 µM
same,TGI,HCC-2998 colon,> 100 µM
same,TGI,786-0 renal,> 100 µM
same,TGI,SK-OV-3 ovarian,> 100 µM
same,TGI,SF-268 CNS,> 100 µM
same,TGI,SNB-19 CNS,> 100 µM
same,TGI,SW-620 colon,> 100 µM
same,TGI,OVCAR-3 ovarian,> 100 µM
same,TGI,MOLT-4 leukemia,> 100 µM
same,TGI,HS 578T breast,> 100 µM
same,TGI,HOP-92 NSCLC,> 100 µM
same,TGI,SNB-75 CNS,> 100 µM
same,TGI,U251 CNS,> 100 µM
same,TGI,SF-295 CNS,> 100 µM
same,TGI,CAKI-1 renal,> 100 µM
same,TGI,A549 NSCLC,> 100 µM
same,TGI,BT-549 breast,94.8 µM
same,TGI,OVCAR-5 ovarian,> 100 µM
same,TGI,KM12 colon,> 100 µM
same,TGI,SK-MEL-5 melanoma,> 100 µM
same,TGI,MDA-N,> 100 µM
same,TGI,A498 renal,60.9 µM
same,TGI,NCI-H23 lung,> 100 µM
same,TGI,MDA-MB-435,> 100 µM
same,TGI,TK-10 renal,> 100 µM
same,TGI,UACC-257 melanoma,> 100 µM
same,TGI,ACHN renal,> 100 µM
same,TGI,HCT-116 colon,> 100 µM
same,TGI,SN12C renal,> 100 µM
same,TGI,LOX IMVI melanoma,> 100 µM
same,TGI,NCI-H460 lung,> 100 µM
same,TGI,UACC-62 melanoma,> 100 µM
same,TGI,MCF7 breast,> 100 µM
same,TGI,SR leukemia,> 100 µM
same,TGI,UO-31 renal,> 100 µM
same,TGI,IGROV1 ovarian,> 100 µM
same,TGI,HL-60(TB) leukemia,> 100 µM
same,TGI,SK-MEL-28 melanoma,> 100 µM
same,TGI,COLO 205 colon,> 100 µM
same,TGI,RPMI-8226 leukemia,> 100 µM
same,TGI,PC-3 prostate,> 100 µM
same,TGI,HOP-62 NSCLC,> 100 µM
same,TGI,HT29 colon,> 100 µM
same,TGI,MALME-3M melanoma,> 100 µM
CCCCc1ccc(N2C(=O)c3cc([N+](=O)[O-])cnc3S2(=O)=O)cc1,TGI,MDA-MB-231 breast,> 100 µM
same,TGI,K-562 leukemia,> 100 µM
same,TGI,OVCAR-4 ovarian,> 100 µM
same,TGI,SF-539 CNS,> 100 µM
same,TGI,M14 melanoma,> 100 µM
same,TGI,T-47D breast,> 100 µM
same,TGI,NCI/ADR-RES ovarian,> 100 µM
same,TGI,HCC-2998 colon,> 100 µM
same,TGI,786-0 renal,> 100 µM
same,TGI,SK-OV-3 ovarian,> 100 µM
same,TGI,SF-268 CNS,> 100 µM
same,TGI,SNB-19 CNS,> 100 µM
same,TGI,SW-620 colon,> 100 µM
same,TGI,OVCAR-3 ovarian,> 100 µM
same,TGI,MOLT-4 leukemia,> 100 µM
same,TGI,HS 578T breast,> 100 µM
same,TGI,HOP-92 NSCLC,8.03 µM
same,TGI,SNB-75 CNS,> 100 µM
same,TGI,U251 CNS,> 100 µM
same,TGI,OVCAR-8 ovarian,> 100 µM
same,TGI,HCT-15 colon,> 100 µM
same,TGI,SF-295 CNS,> 100 µM
same,TGI,CAKI-1 renal,> 100 µM
same,TGI,A549 NSCLC,> 100 µM
same,TGI,BT-549 breast,> 100 µM
same,TGI,OVCAR-5 ovarian,> 100 µM
same,TGI,KM12 colon,> 100 µM
same,TGI,SK-MEL-5 melanoma,> 100 µM
same,TGI,MDA-N,> 100 µM
same,TGI,NCI-H226 lung,> 100 µM
same,TGI,A498 renal,> 100 µM
same,TGI,NCI-H23 lung,> 100 µM
same,TGI,MDA-MB-435,> 100 µM
same,TGI,TK-10 renal,> 100 µM
same,TGI,EKVX NSCLC,> 100 µM
same,TGI,UACC-257 melanoma,> 100 µM
same,TGI,ACHN renal,> 100 µM
same,TGI,HCT-116 colon,> 100 µM
same,TGI,SN12C renal,> 100 µM
same,TGI,LOX IMVI melanoma,> 100 µM
same,TGI,NCI-H460 lung,> 100 µM
same,TGI,UACC-62 melanoma,> 100 µM
same,TGI,MCF7 breast,> 100 µM
same,TGI,SR leukemia,> 100 µM
same,TGI,UO-31 renal,> 100 µM
same,TGI,IGROV1 ovarian,> 100 µM
same,TGI,SK-MEL-28 melanoma,> 100 µM
same,TGI,COLO 205 colon,> 100 µM
same,TGI,RPMI-8226 leukemia,> 100 µM
same,TGI,SK-MEL-2 melanoma,59 µM
same,TGI,PC-3 prostate,> 100 µM
same,TGI,HOP-62 NSCLC,> 100 µM
same,TGI,HT29 colon,> 100 µM
same,TGI,MALME-3M melanoma,> 100 µM
CN(C)CCNC(=O)c1cccc(NC(=O)c2ccccc2)c1[N+](=O)[O-],TGI,MDA-MB-231 breast,> 100 µM
same,TGI,M14 melanoma,> 100 µM
same,TGI,T-47D breast,> 100 µM
same,TGI,CCRF-CEM leukemia,> 100 µM
same,TGI,NCI/ADR-RES ovarian,> 100 µM
same,TGI,HCC-2998 colon,> 100 µM
same,TGI,786-0 renal,> 100 µM
same,TGI,SK-OV-3 ovarian,> 100 µM
same,TGI,SF-268 CNS,> 100 µM
same,TGI,SNB-19 CNS,> 100 µM
same,TGI,SW-620 colon,> 100 µM
same,TGI,NCI-H522 lung,> 100 µM
same,TGI,OVCAR-3 ovarian,64.8 µM
same,TGI,MOLT-4 leukemia,> 100 µM
same,TGI,HS 578T breast,> 100 µM
same,TGI,SNB-75 CNS,> 100 µM
same,TGI,U251 CNS,> 100 µM
same,TGI,OVCAR-8 ovarian,> 100 µM
same,TGI,HCT-15 colon,> 100 µM
same,TGI,SF-295 CNS,> 100 µM
same,TGI,CAKI-1 renal,> 100 µM
same,TGI,A549 NSCLC,> 100 µM
same,TGI,BT-549 breast,> 100 µM
same,TGI,OVCAR-5 ovarian,> 100 µM
same,TGI,KM12 colon,> 100 µM
same,TGI,SK-MEL-5 melanoma,> 100 µM
same,TGI,MDA-N,> 100 µM
same,TGI,NCI-H226 lung,> 100 µM
same,TGI,A498 renal,> 100 µM
same,TGI,NCI-H23 lung,> 100 µM
same,TGI,MDA-MB-435,> 100 µM
same,TGI,TK-10 renal,> 100 µM
same,TGI,UACC-257 melanoma,> 100 µM
same,TGI,ACHN renal,> 100 µM
same,TGI,HCT-116 colon,> 100 µM
same,TGI,SN12C renal,> 100 µM
same,TGI,NCI-H460 lung,> 100 µM
same,TGI,UACC-62 melanoma,> 100 µM
same,TGI,MCF7 breast,> 100 µM
same,TGI,UO-31 renal,> 100 µM
same,TGI,IGROV1 ovarian,> 100 µM
same,TGI,HL-60(TB) leukemia,> 100 µM
same,TGI,SK-MEL-28 melanoma,> 100 µM
same,TGI,COLO 205 colon,> 100 µM
same,TGI,SK-MEL-2 melanoma,> 100 µM
same,TGI,PC-3 prostate,> 100 µM
same,TGI,HOP-62 NSCLC,> 100 µM
same,TGI,HT29 colon,> 100 µM
same,TGI,MALME-3M melanoma,27.3 µM
